One substance from patent US11786584B2, “Peptides and combination of peptides for use in immunotherapy against prostate cancer and other cancers” (Immatics Biotechnologies GmbH, priority 2015, dated 2023) can be followed below.

For one experiment, the system named is CD8+ T cells. Kind of experiment: In vitro T-cell priming assay with aAPCs loaded with peptide/MHC and anti-CD28, multimer readout. In kind it is cell-based, human. Particulars: in vitro immunogenicity, Table 15B. From the text:
In order to obtain information regarding the immunogenicity of the TUMAPs of the present invention, the inventors performed investigations using an in vitro T-cell priming assay based on repeated stimulations of CD8+ T cells with artificial antigen presenting cells (aAPCs) loaded with peptide/MHC complexes and anti-CD28 antibody.
In order to perform in vitro stimulations by artificial antigen presenting cells loaded with peptide-MHC complex (pMHC) and anti-CD28 antibody, the inventors first isolated CD8+ T cells from fresh HLA-A*02 leukapheresis products via positive selection using CD8 microbeads (Miltenyi Biotec, Bergisch-Gladbach, Germany) of healthy donors obtained from the University clinics Mannheim, Germany, after informed consent.
PBMCs and isolated CD8+ lymphocytes were incubated in T-cell medium (TCM) until use consisting of RPMI-Glutamax (Invitrogen, Karlsruhe, Germany) supplemented with 10% heat inactivated human AB serum (PAN-Biotech, Aidenbach, Germany), 100 U/ml Penicillin/100 μg/ml Streptomycin (Cambrex, Cologne, Germany), 1 mM sodium pyruvate (CC Pro, Oberdorla, Germany), 20 μg/ml Gentamycin (Cambrex). 2.5 ng/ml IL7 (PromoCell, Heidelberg, Germany) and 10 U/ml IL-2 (Novartis Pharma, Nurnberg, Germany) were also added to the TCM at this step.
Generation of pMHC/anti-CD28 coated beads, T-cell stimulations and readout was performed in a highly defined in vitro system using four different pMHC molecules per stimulation condition and 8 different pMHC molecules per readout condition.
The purified co-stimulatory mouse IgG2a anti human CD28 Ab 9.3 (Jung et al., 1987) was chemically biotinylated using Sulfo-N-hydroxysuccinimidobiotin as recommended by the manufacturer (Perbio, Bonn, Germany). Beads used were 5.6 μm diameter streptavidin coated polystyrene particles (Bangs Laboratories, Illinois, USA).
800.000 beads/200 μl were coated in 96-well plates in the presence of 4×12.5 ng different biotin-pMHC, washed and 600 ng biotin anti-CD28 were added subsequently in a volume of 200 μl. Stimulations were initiated in 96-well plates by co-incubating […] CD8+ T cells with 2×10^5 washed coated beads in 200 μl TCM supplemented with 5 ng/ml IL-12 (PromoCell) for 3 days at 37° C. Half of the medium was then exchanged by fresh TCM supplemented with 80 U/ml IL-2 and incubating was continued for 4 days at 37° C. This stimulation cycle was performed for a total of three times. For the pMHC multimer readout using 8 different pMHC molecules per condition, a two-dimensional combinatorial coding approach was used as previously described (Andersen et al., 2012) with minor modifications encompassing coupling to 5 different fluorochromes. Finally, multimeric analyses were performed by staining the cells with Live/dead near IR dye (Invitrogen, Karlsruhe, Germany), CD8-FITC antibody clone SK1 (BD, Heidelberg, Germany) and fluorescent pMHC multimers. For analysis, a BD LSRII SORP cytometer equipped with appropriate lasers and filters was used. Peptide specific cells were calculated as percentage of total CD8+ cells. Evaluation of multimeric analysis was done using the FlowJo software (Tree Star, Oregon, USA). In vitro priming of specific multimer+ CD8+ lymphocytes was detected by comparing to negative control stimulations.

For the next experiment, the target named is HLA-A*02 (Homo sapiens, UniProt P04439, D140Y/D185E/D98H/E176V/E277Q/G131W/G231S/I119V/I121R/I166T/I218V/L300P/N151K/N90K/P208A/P217A/Q86G/Q94H/R138H/R169H). Kind of experiment: MHC binding assay by UV-ligand exchange and beta2m ELISA. Particulars: peptide exchange yield. From the text:
Candidate peptides for T cell based therapies according to the present invention were further tested for their MHC binding capacity (affinity). The individual peptide-MHC complexes were produced by UV-ligand exchange, where a UV-sensitive peptide is cleaved upon UV-irradiation, and exchanged with the peptide of interest as analyzed. Only peptide candidates that can effectively bind and stabilize the peptide-receptive MHC molecules prevent dissociation of the MHC complexes. To determine the yield of the exchange reaction, an ELISA was performed based on the detection of the light chain (β2m) of stabilized MHC complexes. The assay was performed as generally described in Rodenko et al. (Rodenko et al., 2006).
96 well MAXISorp plates (NUNC) were coated over night with 2 ug/ml streptavidin in PBS at room temperature, washed 4× and blocked for 1 h at 37° C. in 2% BSA containing blocking buffer. Refolded HLA-A*02:01/MLA-001 monomers served as standards, covering the range of 15-500 ng/ml. Peptide-MHC monomers of the UV-exchange reaction were diluted 100 fold in blocking buffer. Samples were incubated for 1 h at 37° C., washed four times, incubated with 2 ug/ml HRP conjugated anti-β2m for 1 h at 37° C., washed again and detected with TMB solution that is stopped with […]. Absorption was measured at 450 nm. Candidate peptides that show a high exchange yield (preferably higher than 50%, most preferred higher than 75%) are generally preferred for a generation and production of antibodies or fragments thereof, and/or T cell receptors or fragments thereof, as they show sufficient avidity to the MHC molecules and prevent dissociation of the MHC complexes.

On to “6 (ALLESRVNL; listed as Homo sapiens) [compound 6]”, for which the “Wells positive [%]” value in the experiment with CD8+ T cells is reported as “+ (<20% = +)”. Besides, the Peptide exchange result with HLA-A*02 is on record as “++++ (>75% = ++++)”.
